According to patent US10053417B2, “Neprilysin inhibitors” (THERAVANCE BIOPHARMA R&D IP, LLC, priority 2013, dated 2018):

molecular target: T1, human NEP (Homo sapiens, UniProt P08473); assay: In vitro enzyme inhibition assay, inhibitor potency at human NEP (Assay 1); format: biochemical; conditions: recombinant human NEP; fluorogenic peptide substrate 10 μM; 37° C.; values given as ranges
T1 construct: purchased R&D Systems, Minneapolis, Minn; 1182-ZN
In short: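 Recombinant human NEP pre-incubated 30 min at 37 °C with compound ([…]), then 10 μM Mca-D-Arg-Arg-Leu-Dap-(Dnp)-OH added in 50 mM HEPES pH 7.5, 100 mM NaCl, 0.01% Tween-20, 10 μM ZnSO4; stopped after 20 min with acetic acid. Fluorescence ex 320/em 405 nm; Ki from nonlinear regression, reported as pKi.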

T1 sequence (P08473 52-750 limits assumed): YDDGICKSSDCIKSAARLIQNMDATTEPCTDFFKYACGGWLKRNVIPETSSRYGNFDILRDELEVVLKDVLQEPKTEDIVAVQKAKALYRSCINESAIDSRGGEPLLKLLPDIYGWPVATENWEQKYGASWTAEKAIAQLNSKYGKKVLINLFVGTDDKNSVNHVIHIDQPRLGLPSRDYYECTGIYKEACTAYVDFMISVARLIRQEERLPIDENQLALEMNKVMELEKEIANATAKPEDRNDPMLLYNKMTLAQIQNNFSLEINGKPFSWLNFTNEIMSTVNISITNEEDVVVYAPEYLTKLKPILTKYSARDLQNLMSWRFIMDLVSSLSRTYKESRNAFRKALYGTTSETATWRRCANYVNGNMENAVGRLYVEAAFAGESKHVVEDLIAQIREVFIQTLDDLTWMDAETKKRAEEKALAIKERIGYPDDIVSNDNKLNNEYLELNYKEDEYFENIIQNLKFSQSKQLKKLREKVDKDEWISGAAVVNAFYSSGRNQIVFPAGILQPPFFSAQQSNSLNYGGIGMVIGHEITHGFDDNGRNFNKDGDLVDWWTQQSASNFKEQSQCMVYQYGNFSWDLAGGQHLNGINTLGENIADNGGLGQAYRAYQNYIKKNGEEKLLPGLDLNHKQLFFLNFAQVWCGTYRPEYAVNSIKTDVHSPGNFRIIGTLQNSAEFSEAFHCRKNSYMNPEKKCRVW

| Compound | Ki |
| --- | --- |
| COCC(=O)N[C@H](Cc1ccc(-c2cccc(Cl)c2)cc1)C[C@@](C)(CO)C(=O)O [Example 11, (2S,4R)-5-(3′-Chlorobiphenyl-4-yl)-2-hydroxymethyl-4-(2-methoxy-acetylamino)-2-methylpentanoic Acid] | 1 to 10 nM |
| C[C@@](CO)(C[C@@H](Cc1ccc(-c2cccc(Cl)c2)cc1)NC(=O)COCc1ccccc1)C(=O)O [Example 12, (2S,4R)-4-(2-Benzyloxyacetylamino)-5-(3′-chlorobiphenyl-4-yl)-2-hydroxymethyl-2-methyl-pentanoic acid] | 10 to 31.6 nM |
| C[C@@](CO)(C[C@@H](Cc1ccc(-c2cccc(Cl)c2)cc1)NC=O)C(=O)O [Example 13, (2S,4R)-5-(3′-Chlorobiphenyl-4-yl)-4-formylamino-2-hydroxymethyl-2-methyl-pentanoic Acid] | 1 to 10 nM |

Now from value to molecule:

| Ki | Compound |
| --- | --- |
| 10 to 31.6 nM | CCOCC(=O)N[C@H](Cc1ccc(-c2cccc(Cl)c2)cc1)C[C@@H](O)C(=O)O [Example 10-3, (2R,4R)-5-(3′-Chlorobiphenyl-4-yl)-4-(2-ethoxyacetylamino)-2-hydroxy-pentanoic acid] |
| 10 to 31.6 nM | CC(C)OCC(=O)N[C@H](Cc1ccc(-c2cccc(Cl)c2)cc1)C[C@@H](O)C(=O)O [Example 10-4, (2R,4R)-5-(3′-Chlorobiphenyl-4-yl)-2-hydroxy-4-(2-isopropoxyacetylamino)-pentanoic acid] |
| 1 to 10 nM | O=C(COc1cccnc1)N[C@H](Cc1ccc(-c2cccc(Cl)c2)cc1)C[C@@H](O)C(=O)O [Example 10-5, (2R,4R)-5-(3′-Chlorobiphenyl-4-yl)-2-hydroxy-4-[2-(pyridin-3-yloxy)-acetylamino]-pentanoic acid] |
| 10 to 31.6 nM | O=C(COCc1ccccc1)N[C@H](Cc1ccc(-c2cccc(Cl)c2)cc1)C[C@@H](O)C(=O)O [Example 10-6, (2R,4R)-4-(2-Benzyloxy-acetylamino)-5-(3′-chlorobiphenyl-4-yl)-2-hydroxy-pentanoic acid] |
| 10 to 31.6 nM | O=C(COc1ccccc1)N[C@H](Cc1ccc(-c2cccc(Cl)c2)cc1)C[C@@H](O)C(=O)O [Example 10-7, (2R,4R)-5-(3′-Chlorobiphenyl-4-yl)-2-hydroxy-4-(2-phenoxyacetylamino)-pentanoic acid] |
| 10 to 31.6 nM | O=C(COc1ccc(O)cc1)N[C@H](Cc1ccc(-c2cccc(Cl)c2)cc1)C[C@@H](O)C(=O)O [Example 10-8, (2R,4R)-5-(3′-Chlorobiphenyl-4-yl)-2-hydroxy-4-[2-(4-hydroxyphenoxy)-acetylamino]-pentanoic acid] |
| 10 to 31.6 nM | COc1cccc(OCC(=O)N[C@H](Cc2ccc(-c3cccc(Cl)c3)cc2)C[C@@H](O)C(=O)O)c1 [Example 10-9, (2R,4R)-5-(3′-Chlorobiphenyl-4-yl)-2-hydroxy-4-[2-(3-methoxyphenoxy)-acetylamino]-pentanoic acid] |
